Assay results published in ChEMBL document CHEMBL3992516, “Synthesis and SAR evaluation of novel thioridazine derivatives active against drug-resistant tuberculosis” (Eur J Med Chem, 2017).
In brackets after ≈: the same amount, converted by molar mass.

system: Mycobacterium tuberculosis variant bovis; assay: Antimycobacterial activity against Mycobacterium bovis BCG Pasteur ATCC 35734 by microplate alamar blue assay; type: functional

**Q.** Which MIC does the source give for `CN1CCCCC1CCN1c2ccccc2Sc2ccc(Cl)cc21` (stereo unspecified) here?
**A.** 8 µg/mL (≈ 22.3 µM)

**Q.** With `CN1CCCCC1CCn1c2ccccc2c2ccccc21` (stereo unspecified) as the compound, how does the MIC read?
**A.** > 64 µg/mL

**Q.** With `CN1CCCCC1CCn1cnc2ccccc21` (stereo unspecified) as the compound, how does the MIC read?
**A.** > 64 µg/mL

**Q.** How did the MIC turn out when `c1ccc2c(c1)ccn2CCC1CCCCN1` (stereo unspecified) was run?
**A.** 64 µg/mL (≈ 280 µM)

**Q.** Which MIC does the source give for `CSc1ccc2c(c1)N(CCCN1CCN(C)CC1)c1ccccc1S2` here?
**A.** 8 µg/mL (≈ 20.7 µM)

**Q.** For `Clc1ccc2c(c1)N(CCCN1CCN(c3ccccc3)CC1)c1ccccc1S2`, which MIC is on record?
**A.** > 64 µg/mL

**Q.** How did the MIC turn out when `Clc1ccc2c(c1)N(CCCN1CCSCC1)c1ccccc1S2` was run?
**A.** > 64 µg/mL

**Q.** `c1ccc2c(c1)c1ccccc1n2CCC1CCCCN1` (stereo unspecified) was tested. Which MIC did it give?
**A.** > 64 µg/mL

**Q.** For `CN1CCCCC1CCN1c2ccccc2Sc2ccccc21` (stereo unspecified), which MIC is on record?
**A.** 64 µg/mL (≈ 197 µM)

**Q.** How did the MIC turn out when `c1ccc(N2CCN(CCCN3c4ccccc4Sc4ccccc43)CC2)cc1` was run?
**A.** > 64 µg/mL

**Q.** With `CCCN1CCCCC1CCN1c2ccccc2Sc2ccc(SC)cc21` (stereo unspecified) as the compound, how does the MIC read?
**A.** 64 µg/mL (≈ 161 µM)

**Q.** `CSc1ccc2c(c1)N(CCC1CCCCN1C(C)C)c1ccccc1S2` (stereo unspecified) was tested. Which MIC did it give?
**A.** > 64 µg/mL

**Q.** How did the MIC turn out when `c1ccc2c(c1)Sc1ccccc1N2CCC1CCCCN1` (stereo unspecified) was run?
**A.** > 64 µg/mL

**Q.** `c1ccc2c(c1)ncn2CCC1CCCCN1` (stereo unspecified) was tested. Which MIC did it give?
**A.** > 64 µg/mL

**Q.** For `CSc1ccc2c(c1)N(CCCN1CCN(c3ccccc3)CC1)c1ccccc1S2`, which MIC is on record?
**A.** > 64 µg/mL

**Q.** With `CSc1ccc2c(c1)N(CCCN1CCN(C34CC5CC(CC(C5)C3)C4)CC1)c1ccccc1S2` as the compound, how does the MIC read?
**A.** 64 µg/mL (≈ 127 µM)

**Q.** `CSc1ccc2c(c1)N(CCC1CCCCN1)c1ccccc1S2` (stereo unspecified) was tested. Which MIC did it give?
**A.** 8 µg/mL (≈ 22.4 µM)

**Q.** How did the MIC turn out when `CSc1ccc2c(c1)N(C(=O)CN1CCN(C)CC1)c1ccccc1S2` was run?
**A.** > 64 µg/mL

**Q.** For `Clc1ccc2c(c1)N(CCC1CCCCN1)c1ccccc1S2` (stereo unspecified), which MIC is on record?
**A.** 5.3 µg/mL (≈ 15.4 µM)

**Q.** `CSc1ccc2c(c1)N(CCCN1CCN(C3C4CC5CC(C4)CC3C5)CC1)c1ccccc1S2` (stereo unspecified) was tested. Which MIC did it give?
**A.** > 64 µg/mL

**Q.** How did the MIC turn out when `CN1CCN(CCCn2ccc3ccccc32)CC1` was run?
**A.** > 64 µg/mL

**Q.** `CSc1ccc2c(c1)N(CCCN1CCSCC1)c1ccccc1S2` was tested. Which MIC did it give?
**A.** > 64 µg/mL

**Q.** `CSc1ccc2c(c1)N(CCC1CCCCN1Cc1ccccc1)c1ccccc1S2` (stereo unspecified) was tested. Which MIC did it give?
**A.** 8 µg/mL (≈ 17.9 µM)

**Q.** `NNC(=O)c1ccncc1` [ISONIAZID] was tested. Which MIC did it give?
**A.** 0.063 µg/mL (≈ 0.459 µM)

**Q.** With `CN1CCN(CCCN2c3ccccc3Sc3ccccc32)CC1` [PERAZINE] as the compound, how does the MIC read?
**A.** 64 µg/mL (≈ 189 µM)

**Q.** `CSc1ccc2c(c1)N(CCC1CCCCN1C)c1ccccc1S2` (stereo unspecified) [THIORIDAZINE] was tested. Which MIC did it give?
**A.** 16 µg/mL (≈ 43.2 µM)
